# Test results taken from patent US7713963B2, “Acylated indanyl amines and their use as pharmaceuticals” (sanofi-aventis Deutschland GmbH, priority 2001, dated 2010).
# Like-named read-outs stand apart in the source and are kept apart here.
# Tested on: eNOS promoter
# Assay: Activation of eNOS transcription (eNOS promoter-luciferase reporter gene assay)
# Type: cell-based, human
# Conditions: for maximal fold induction: read-out: TIR (max)
# Experimental: Measurement of activation of eNOS transcription Activation of eNOS transcription was measured as described in detail in Li et al. “Activation of protein kinase C alpha and/or epsilon enhances transcription of the human endothelial nitric oxide synthase gene”, Mol. Pharmacol. 1998; 53: 630-637. Briefly, a 3.5 kB long fragment 5′ of the starting codon of the eNOS gene was cloned, sequenced and cloned in firefly luciferase expression plasmids to monitor activation of the eNOS promoter by reporter gene activity. A human endothelial cell line stable transfected and expressing this promoter-reporter construct was used for compound testing. Cells were incubated for 18 h with compounds. All compounds were dissolved in sterile DMSO. A final concentration of 0.5% DMSO in complete medium was allowed. Induction of reporter gene expression in these cells was measured using a standard luciferase assay system (Promega, Cat. No E150) according to the manufacturer's instructions. Luciferase induction in cells incubated with compounds were compared to those incubated with solvent alone. The ratio of both activities (transcription induction ratio, TIR) was plotted as a function of compound concentration. […] EC50 values of transcription induction ratios as a function of compound concentration were determined graphically.
# [1] = Homo sapiens, 18 h, maximum transcription induction ratio (luciferase with compound / solvent alone), 18 h incubation
# [2] = Homo sapiens, Endothelial cell, 18 h, EC50 of transcription induction ratio, determined graphically, human endothelial cell line, 18 h incubation, read-out: EC-50
# [3] = EC50 of transcription induction ratio, determined graphically, human endothelial cell line, 18 h incubation, read-out: EC-50
# [4] = maximum transcription induction ratio (luciferase with compound / solvent alone), 18 h incubation
SMILES,EC50 [2] [µM],maximal fold induction [1],also measured
"O=C(N[C@@H]1Cc2ccccc2[C@H]1O)c1ccc(F)cc1 (relative stereo) [Compound 8, 4-FLUORO-N-(TRANS-1-HYDROXY-INDAN-2-YL)-BENZAMIDE]",8,2.2,–
"Cc1cccc2c1CC(NC(=O)c1ccc(F)cc1)C2 (single isomer, unassigned; (+)) [Compound 1b, (+)-4-Fluoro-N-(4-methyl-indan-2-yl)-benzamide]",–,–,EC50 [3]: 0.2 µM; TIR (max) [4]: 3.00
"Cc1cccc2c1CC(NC(=O)c1ccc(F)cc1)C2 (single isomer, unassigned; (-)) [Compound 1a, (−)-4-Fluoro-N-(4-methyl-indan-2-yl)-benzamide]",–,2.8,EC50 [3]: 6 µM
"O=C(NC1Cc2ccc(F)cc2C1)c1ccc(F)cc1 (stereo not drawn) [Compound 4, 4-FLUORO-N-(5-FLUORO-INDAN-2-YL)-BENZAMIDE]",3,2.95,–
"Cc1ccc2c(c1)CC(NC(=O)c1ccc(F)cc1)C2 (stereo not drawn) [Compound 5, 4-FLUORO-N-(5-METHYL-INDAN-2-YL)-BENZAMIDE]",30,2.5,–
"CCOc1ccc(C(=O)NC2Cc3ccccc3C2)c(OC(C)=O)c1 [Compound 6, ACETIC ACID 5-ETHOXY-2-(INDAN-2-YL-CARBAMOYL)-PHENYL ESTER]",1.2,2.55,–
"CC(=O)Oc1cc(C)ccc1C(=O)NC1Cc2ccccc2C1 [Compound 7, ACETIC ACID 2-(INDAN-2-YL-CARBAMOYL)-5-METHYL-PHENYLESTER]",–,–,"maximal fold induction (Homo sapiens, 18 h): 2.57; EC50 (Homo sapiens, Endothelial cell, 18 h): 0.1 µM"
"Cc1ccc(C(=O)NC2Cc3ccccc3C2)c(O)c1 [Compound 22, 2-HYDROXY-N-INDAN-2-YL-4-METHYL-BENZAMIDE]",7,2.1,–
"CCOc1ccc(C(=O)NC2Cc3ccccc3C2)c(O)c1 [Compound 23, 4-ETHOXY-2-HYDROXY-N-INDAN-2-YL-BENZAMIDE]",5,2.2,–
"O=C(NC1Cc2ccccc2C1)c1cccc(F)c1 [Compound 24, 3-FLUORO-N-INDAN-2-YL-BENZAMIDE]",2.5,2.88,–
"CCOc1cc(C(=O)NC2Cc3ccccc3C2)ccc1OC [Compound 25, 3-ETHOXY-4-METHOXY-N-INDAN-2-YL-BENZAMIDE]",12,2.7,–
"CCOc1ccc(C(=O)NC2Cc3ccccc3C2)cc1 [Compound 26, 4-ETHOXY-N-INDAN-2-YL-BENZAMIDE]",0.9,3.8,–
"Cc1cc(C(=O)NC2Cc3ccccc3C2)ccc1Cl [Compound 27, 4-CHLORO-3-METHYL-N-INDAN-2-YL-BENZAMIDE]",0.2,3.6,–
"CC(C)Oc1ccc(C(=O)NC2Cc3ccccc3C2)cc1 [Compound 28, 4-ISOPROPYLOXY-N-INDAN-2-YL-BENZAMIDE]",2.5,4.4,–
"Cc1ccc(C(=O)NC2Cc3ccccc3C2)cc1C [Compound 29, 3,4-DIMETHYL-N-INDAN-2-YL-BENZAMIDE]",0.8,3.8,–
"CCCCOc1ccc(C(=O)NC2Cc3ccccc3C2)cc1 [Compound 30, 4-BUTOXY-N-INDAN-2-YL-BENZAMIDE]",3,2.94,–
"COc1ccc(C(=O)NC2Cc3ccccc3C2)cc1Cl [Compound 31, 3-CHLORO-4-METHOXY-N-INDAN-2-YL-BENZAMIDE]",6,3.05,–
"O=C(NC1Cc2ccccc2C1)c1ccc(Oc2ccccc2)cc1 [Compound 32, 4-PHENOXY-N-INDAN-2-YL-BENZAMIDE]",1.7,4,–
"O=C(NC1Cc2ccccc2C1)c1ccc(F)c(Br)c1 [Compound 33, 3-BROMO-4-FLUORO-N-INDAN-2-YL-BENZAMIDE]",4,3.3,–
"Cc1ccc(C(=O)NC2Cc3ccccc3C2)cc1Cl [Compound 34, 3-CHLORO-4-METHYL-N-INDAN-2-YL-BENZAMIDE]",1.7,3.4,–
"O=C(NC1Cc2ccccc2C1)c1ccc(Br)s1 [Compound 41, 5-BROMO-THIOPHEN-2-CARBOXYLIC ACID-INDAN-2-YLAMIDE]",0.18,2.4,–
"Cc1cc(C)c(C(=O)NC2Cc3ccccc3C2)c(N)n1 [Compound 187, 2-AMINO-N-INDAN-2-YL-4,6-DIMETRYL-NICOTINAMIDE]",–,–,EC50 [3]: 4.4 µM; TIR (max) [4]: 2.5

# The next lines start with results.
EC50 [2] [µM],SMILES,maximal fold induction [1],also measured
0.6,"O=C(NC1Cc2cccc(Br)c2C1)c1ccc(F)cc1 (single isomer, unassigned) [Compound 396A, N-(4-BROMO-INDAN-2-YL)-4-FLUORO-BENZAMIDE]",3.55,–
0.7,"O=C(NC1Cc2ccccc2C1)c1ccc(F)cc1Br [Compound 61, 2-BROMO-4-FLUORO-N-INDAN-2-YL-BENZAMIDE]",2.6,–
0.4,"O=C(NC1Cc2ccccc2C1)c1ccc(Cl)cc1 [Compound 69, 4-CHLORO-N-INDAN-2-YL-BENZAMIDE]",4.2,–
0.7,"Nc1ccccc1C(=O)NC1Cc2ccccc2C1 [Compound 73, 2-AMINO-N-INDAN-2-YL-BENZAMIDE]",4,–
27,"Nc1nccnc1C(=O)NC1Cc2ccccc2C1 [Compound 185, 3-AMINO-PYRAZINE-2-CARBOXYLIC ACID INDAN-2-YLAMIDE]",2.4,–
10,"Cc1cc(C)c(C(=O)NC2Cc3ccccc3C2)cn1 [Compound 189, N-INDAN-2-YL-4,6-DIMETHYL-NICOTINAMIDE]",2.2,–
16,"O=C(NC1Cc2ccccc2C1)c1ccc(Cl)nc1Cl [Compound 203, 2,6-DICHLORO-N-INDAN-2-YL-NICOTINAMIDE]",2.7,–
0.7,"Cc1cc(C(=O)NC2Cc3ccccc3C2)c(C)[nH]1 [Compound 216, 2,5-DIMETHYL-1H-PYRROLE-3-CARBOXYLIC ACID INDAN-2-YLAMIDE]",2.8,–
0.82,"Cc1cc(C(=O)NC2Cc3ccccc3C2)c(C)n1Cc1ccncc1 [Compound 230, 2,5-DIMETHYL-1-PYRIDIN-4-YLMETHYL-1H-PYRROLE-3-CARBOXYLIC ACID INDAN-2-YLAMIDE]",4,–
13,"Cc1nc(C)c(C(=O)NC2Cc3ccccc3C2)s1 [Compound 233, 2,4-DIMETHYL-THIAZOLE-5-CARBOXYLIC ACID INDAN-2-YLAMIDE]",2.5,–
22,"O=C(NC1Cc2ccccc2C1)c1ccc(C(F)(F)F)nc1 [Compound 236, N-INDAN-2-YL-6-TRIFLUOROMETHYL-NICOTINAMIDE]",2,–
7.7,"Cc1nc(C(F)(F)F)ccc1C(=O)NC1Cc2ccccc2C1 [Compound 237, N-INDAN-2-YL-2-METHYL-6-TRIFLUOROMETHYL-NICOTINAMIDE]",2.5,–
0.11,"COC(=O)c1cccc(C(=O)NC2Cc3ccccc3C2)c1 [Compound 243, N-INDAN-2-YL-ISOPHTHALAMIC ACID METHYL ESTER]",2.8,–
0.67,"O=C(NC1Cc2ccccc2C1)c1ccc(SC(F)(F)F)cc1 [Compound 246, N-INDAN-2-YL-4-TRIFLUOROMETHYLSULFANYL-BENZAMIDE]",2.5,–
7.8,"Cc1ccc(F)cc1C(=O)NC1Cc2ccccc2C1 [Compound 248, 5-FLUORO-N-INDAN-2-YL-2-METHYL-BENZAMIDE]",2.8,–
15,"Cc1cccc(C(=O)NC2Cc3ccccc3C2)c1F [Compound 249, 2-FLUORO-N-INDAN-2-YL-3-METHYL-BENZAMIDE]",2.5,–
58,"O=C(NC1Cc2ccccc2C1)c1cccc(Cl)c1F [Compound 250, 3-CHLORO-2-FLUORO-N-INDAN-2-YL-BENZAMIDE]",2.5,–
13,"CC1=C(C(=O)NC2Cc3ccccc3C2)Cc2ccccc21 [Compound 251, 3-METHYL-1H-INDENE-2-CARBOXYLIC ACID INDAN-2-YLAMIDE]",2.6,–
13,"COc1c(Br)cccc1C(=O)NC1Cc2ccccc2C1 [Compound 253, 3-BROMO-N-INDAN-2-YL-2-METHOXY-BENZAMIDE]",2.2,–
11,"O=C(NC1Cc2ccccc2C1)c1ccc(C(=O)C(F)(F)F)cc1 [Compound 256, N-INDAN-2-YL-4-(2,2,2-TRIFLUORO-ACETYL)-BENZAMIDE]",2.5,–
4.3,"Cc1c(Cl)cccc1C(=O)NC1Cc2ccccc2C1 [Compound 257, 3-CHLORO-N-INDAN-2-YL-2-METHYL-BENZAMIDE]",2.7,–
5.8,"O=C(NC1Cc2ccccc2C1)c1cc(F)c(Cl)cc1Cl [Compound 262, 2,4-DICHLORO-5-FLUORO-N-INDAN-2-YL-BENZAMIDE]",2.8,–
13,"O=C(NC1Cc2ccccc2C1)c1cc(F)c(Cl)cc1F [Compound 263, 4-CHLORO-2,5-DIFLUORO-N-INDAN-2-YL-BENZAMIDE]",2.5,–
